According to US7041785B1, “B1-bradykinin receptor antagonists and use thereof” (Université de Sherbrooke, priority 1996, dated 2006):
Non-standard residues stand in square brackets, D forms with d. Residues, ends and D or L forms follow the SMILES beside them. No end group written: not given here. d2Nal = N[C@H](Cc1ccc2ccccc2c1)C(=O)O

Experiments:
B1 receptor = target: T1, B1 receptor (Oryctolagus cuniculus, UniProt P48748); test: cell-based; conditions: for Rb.A. α^E: residual agonistic activity at 10 μg/mL in comparison with desArg9BK
T1 sequence (P48748 1-352): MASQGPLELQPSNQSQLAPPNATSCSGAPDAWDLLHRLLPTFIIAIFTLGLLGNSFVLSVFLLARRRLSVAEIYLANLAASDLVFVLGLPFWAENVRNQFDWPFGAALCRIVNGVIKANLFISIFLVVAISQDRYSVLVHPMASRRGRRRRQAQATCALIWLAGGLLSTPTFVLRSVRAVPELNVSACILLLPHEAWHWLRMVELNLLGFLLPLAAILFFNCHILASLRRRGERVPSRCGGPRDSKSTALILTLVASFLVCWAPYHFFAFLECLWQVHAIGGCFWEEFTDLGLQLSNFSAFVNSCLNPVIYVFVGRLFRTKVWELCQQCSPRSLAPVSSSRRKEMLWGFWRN
Excerpt: (§1) Tissues were taken from New Zealand white rabbits (1.5–2.5 kg) and Dunken Hartley guinea pigs (250–350 g) of either sex, killed by stunning and exsanguination. Umbilical cords were taken from healthy women 22–40 years old after spontaneous delivery at term. The rabbit jugular vein (RbJV), the guinea pig ileum (GPI), two preparations containing B2 receptors, the rabbit aorta (RbA) (B1 receptor) and the human umbilical vein (HUV), a mixed preparation containing both B1 and B2 receptors^10, were used. Helical strips of RbJV treated with 1 μmol/L of captopril to avoid peptide degradation by the angiotensin-converting enzyme (ACE), alias kininase II were prepared according to Gaudreau et al.^11 Helical strips of RbA devoid of endothelium were prepared according to Furchgott and Bhadrakom^12. Longitudinal segments of GPI were prepared with the procedure described by Rang^13. Helical strips of HUV were prepared according to Gobeil et al.^10. The tissues were suspended in 10-ml organ baths containing warm (37EC), oxygenated (95% O2–5% CO2) Krebs solution of the following composition in mmol/L; NaCl: 118.1; KCl: 4.7; CaCl26H2O: 2.5; KH2PO4: 1.2; MgSO47H2O: 1.18; NaHCO3: 25.0 and D-Glucose: 5.5. The RbA and the HUV were stretched with an initial tension of 2 g, whereas the RbJV and the GPI were loaded with 0.5 g. Changes of tension produced by the various agents were measured with Grass isometric transducers (model FT 03C, Grass Instrument Co., Quincy, Mass.). […] Before testing the drugs, the tissues were allowed to equilibrate for 60–120 min during which time the tissues were repeatedly washed and the tension readjusted every 15 min.
(§2) At the beginning of each experiment, a submaximal dose of bradykinin (BK) (9 nmol/L), was applied repeatedly on the RbJV, the GPI or the HUV to ensure that tissues responded with stable contractions. […] A similar protocol was used for the HUV.
(§3) Repeated applications of a singl and double concentration of BK (on RbJV, GPI and HUV) and of desArg^9BK (RbA and HUV) were made in the absence and in presence of the various peptides to evaluate their apparent affinities as antagonists, in terms of pA2 (-log10 of the molar concentration of antagonist that reduces the effect of a double concentration of agonist to that of a single one)^14. The antagonists were applied 10 min before measuring the myotropic effects of either BK (the B2 receptor agonist) or desArg^9BK (the B1 receptor agonist). […] All kinin antagonists were initially applied to tissues at concentration of 10 μg/mL to measure their potential agonistic activities (α^E) in comparison with BK (in the B2 receptor preparations) or desArg^9BK (in the B1 receptor preparations).

B2 receptor [1] = target: T2, B2 receptor (Cavia porcellus, UniProt O70526); test: cell-based
T2 sequence (O70526 1-372): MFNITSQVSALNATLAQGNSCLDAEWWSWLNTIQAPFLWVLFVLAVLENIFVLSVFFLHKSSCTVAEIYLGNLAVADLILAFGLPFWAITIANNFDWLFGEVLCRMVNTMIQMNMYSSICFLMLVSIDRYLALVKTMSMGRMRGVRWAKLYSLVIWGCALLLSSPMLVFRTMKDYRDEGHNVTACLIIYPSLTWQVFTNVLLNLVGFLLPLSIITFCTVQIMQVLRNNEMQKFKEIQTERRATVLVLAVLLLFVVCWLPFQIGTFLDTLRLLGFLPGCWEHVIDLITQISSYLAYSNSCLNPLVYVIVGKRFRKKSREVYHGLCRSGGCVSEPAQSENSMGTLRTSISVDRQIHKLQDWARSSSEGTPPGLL
Excerpt: as §1, §2, §3

B2 receptor [2] = target: T3, B2 receptor (Oryctolagus cuniculus, UniProt Q28642); test: cell-based; conditions: residual agonistic activity at 10 μg/mL in comparison with BK
T3 sequence (Q28642 1-367): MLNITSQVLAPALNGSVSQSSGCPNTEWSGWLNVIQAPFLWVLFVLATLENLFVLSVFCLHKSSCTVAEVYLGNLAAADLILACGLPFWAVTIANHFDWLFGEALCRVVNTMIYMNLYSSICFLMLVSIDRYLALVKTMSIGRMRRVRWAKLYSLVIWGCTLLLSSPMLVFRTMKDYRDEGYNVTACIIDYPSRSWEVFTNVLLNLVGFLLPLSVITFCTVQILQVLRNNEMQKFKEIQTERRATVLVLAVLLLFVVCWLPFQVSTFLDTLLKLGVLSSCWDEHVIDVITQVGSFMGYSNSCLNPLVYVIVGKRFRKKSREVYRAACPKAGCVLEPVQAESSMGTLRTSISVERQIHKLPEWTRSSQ
Excerpt: as §1, §2, §3

human B1 receptor = target: T4, human B1 receptor (Homo sapiens, UniProt P46663); test: cell-based; conditions: for Human umbilical vein B1 receptor α^E: residual agonistic activity at 10 μg/mL
T4 sequence (P46663 1-353): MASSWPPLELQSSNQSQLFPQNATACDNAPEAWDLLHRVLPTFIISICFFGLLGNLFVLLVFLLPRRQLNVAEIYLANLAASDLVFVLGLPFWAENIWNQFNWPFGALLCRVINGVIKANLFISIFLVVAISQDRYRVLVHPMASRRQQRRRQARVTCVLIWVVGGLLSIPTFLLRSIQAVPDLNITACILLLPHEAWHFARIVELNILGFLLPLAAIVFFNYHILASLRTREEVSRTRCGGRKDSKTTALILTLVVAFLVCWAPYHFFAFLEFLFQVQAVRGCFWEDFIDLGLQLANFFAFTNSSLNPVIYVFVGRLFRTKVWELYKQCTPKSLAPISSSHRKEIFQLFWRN
Excerpt: as §1, §2, §3

human B2 receptor = target: T5, human B2 receptor (Homo sapiens, UniProt P30411); test: Human umbilical vein bioassay in presence of Lys(Leu8)desArg9BK, B2 receptor; type: cell-based; conditions: vs BK, Lys(Leu8)desArg9BK 1 μmol/L present
T5 construct: Helical strips of HUV were prepared according to Gobeil et al; from tissue; host or cells: human umbilical vein helical strips
T5 sequence (P30411 1-391): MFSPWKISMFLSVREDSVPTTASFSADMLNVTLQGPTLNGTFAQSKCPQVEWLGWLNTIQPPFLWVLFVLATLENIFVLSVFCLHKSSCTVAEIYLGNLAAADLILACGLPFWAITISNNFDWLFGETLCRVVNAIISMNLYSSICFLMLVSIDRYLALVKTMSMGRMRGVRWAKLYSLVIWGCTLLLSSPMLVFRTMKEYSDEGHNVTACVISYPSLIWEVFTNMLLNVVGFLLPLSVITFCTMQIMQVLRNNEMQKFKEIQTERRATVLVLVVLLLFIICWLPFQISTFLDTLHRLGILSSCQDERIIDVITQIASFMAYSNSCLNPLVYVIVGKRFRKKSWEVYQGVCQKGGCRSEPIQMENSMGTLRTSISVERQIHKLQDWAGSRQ
Excerpt: as §1, §2, §3

B2 receptor [3] = target: T3, B2 receptor; conditions: vs BK; captopril 1 μmol/L; Inactive = no detectable antagonistic effect at ≦ 10 μg/ml
[4] = target: T6, angiotensin-converting enzyme (ACE) from rabbit lungs (Oryctolagus cuniculus, UniProt P12822); conditions: after 30 min, same conditions and enzymatic dilution; cited from earlier work
T6 sequence (P12822 34-1310): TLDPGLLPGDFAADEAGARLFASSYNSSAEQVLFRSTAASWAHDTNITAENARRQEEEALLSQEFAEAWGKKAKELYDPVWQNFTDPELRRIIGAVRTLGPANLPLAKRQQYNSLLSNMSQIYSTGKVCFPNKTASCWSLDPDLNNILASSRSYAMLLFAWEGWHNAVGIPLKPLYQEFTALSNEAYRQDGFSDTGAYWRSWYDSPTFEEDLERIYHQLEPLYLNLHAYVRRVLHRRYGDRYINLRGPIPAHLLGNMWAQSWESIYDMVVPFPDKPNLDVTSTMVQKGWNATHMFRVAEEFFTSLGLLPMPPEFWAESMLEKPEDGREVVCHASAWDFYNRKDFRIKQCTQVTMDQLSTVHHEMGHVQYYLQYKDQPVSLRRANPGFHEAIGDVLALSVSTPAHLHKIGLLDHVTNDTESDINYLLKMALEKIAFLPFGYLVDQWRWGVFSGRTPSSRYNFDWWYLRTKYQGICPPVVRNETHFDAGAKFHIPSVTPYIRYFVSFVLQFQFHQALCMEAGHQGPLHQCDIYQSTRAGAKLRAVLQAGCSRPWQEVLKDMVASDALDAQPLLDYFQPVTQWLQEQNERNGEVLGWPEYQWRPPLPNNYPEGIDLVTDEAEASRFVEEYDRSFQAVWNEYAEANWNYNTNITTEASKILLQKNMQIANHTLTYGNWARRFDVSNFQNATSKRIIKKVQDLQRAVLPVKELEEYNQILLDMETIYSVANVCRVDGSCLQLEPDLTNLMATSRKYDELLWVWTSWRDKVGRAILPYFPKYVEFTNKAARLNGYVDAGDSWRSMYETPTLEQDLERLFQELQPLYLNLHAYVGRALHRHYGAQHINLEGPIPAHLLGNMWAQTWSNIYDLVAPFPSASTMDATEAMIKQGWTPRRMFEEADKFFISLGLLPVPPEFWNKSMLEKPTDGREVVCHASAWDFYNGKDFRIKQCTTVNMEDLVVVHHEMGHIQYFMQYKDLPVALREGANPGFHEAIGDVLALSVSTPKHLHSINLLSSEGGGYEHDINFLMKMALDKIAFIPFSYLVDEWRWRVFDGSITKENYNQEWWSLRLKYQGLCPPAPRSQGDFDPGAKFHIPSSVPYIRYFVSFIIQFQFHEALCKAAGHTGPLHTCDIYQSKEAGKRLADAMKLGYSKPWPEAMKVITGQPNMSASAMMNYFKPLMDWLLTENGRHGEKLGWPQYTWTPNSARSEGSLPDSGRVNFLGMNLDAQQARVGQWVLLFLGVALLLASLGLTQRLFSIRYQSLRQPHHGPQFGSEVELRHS

Row | Compound | Rb.A. α^E (B1 receptor) | G.P.I. pA2 (B2 receptor [1]; vs BK, Inactive = no detectable antagonistic effect at ≦ 10 μg/ml, F.ag. full agonist, P.ag. partial agonist) | Rb.J.V. α^E (B2 receptor [2]) | Human umbilical vein B1 receptor α^E (human B1 receptor) | Human umbilical vein B2 receptor pA2 (human B2 receptor) | Rb.J.V. pA2 (B2 receptor [3]) | Rb.A. pA2 (B1 receptor; apparent affinity as antagonist vs desArg9BK, antagonist applied 10 min before, Inactive = no detectable antagonistic effect at ≦ 10 μg/ml) | G.P.I. α^E (B2 receptor [1]; residual agonistic activity at 10 μg/mL in comparison with BK) | Human umbilical vein B1 receptor pA2 (human B1 receptor; vs desArg9BK, HOE140 400 nmol/L present) | Metabolism of naturally-occurring kinins by ACE [4]
1 | CC[C@H](C)[C@H](NC(=O)[C@@H](Cc1ccc2ccccc2c1)NC(=O)[C@H](CO)NC(=O)[C@H](Cc1ccccc1)NC(=O)CNC(=O)[C@@H]1CCCN1C(=O)[C@@H]1CCCN1C(=O)[C@H](CCCNC(=N)N)NC(=O)[C@H](CCCCN)NC(C)=O)C(=O)O [Compound 19, AcLys(D-βNal^7, Ile^8)desArg^9BK] (Ac-KRPPGFS[d2Nal]I-OH; C-terminus assumed) | 0 | P.ag. | 0.09 | 0 | Inactive | Inactive | – | – | – | –
2 | D-Arg(Hyp^3, D-Hyp^7(trans thiophenyl), Oic^8)desArg^9BK [Compound 34, reference compound] | 0 | – | 0 | 0 | 5.12 ± 0.20 | 7.52 ± 0.05 | 8.27 ± 0.14 | 0 | 8.55 ± 0.09 | –
3 | RPPGFSPFR [BK] | – | – | – | – | – | – | – | – | – | fully metabolised
